Values after ≈ are worked out from the molar mass of the structure shown. Values joined by “and” are separate entries in the source; they are usually repeats but may differ in a detail not shown here. Equal values may be shown once. Read-outs that look alike come from different tables or passages of the source. Blank lines part the entries; values can stand above or below the compound they belong to. Starred links: 1 amine or outer side, 2 acyl side, 3 side chain; linkers in the order of their positions; H or OH if unused. Non-standard residues stand in square brackets, D forms with d. Residues, ends and D or L forms follow the SMILES beside them. *: point of attachment. dAla(cis-4-NHCOPyz-cHex) = N[C@H](C[C@H]1CC[C@@H](NC(=O)c2cnccn2)CC1)C(=O)O; X2 = O=C(N[C@H]1CC[C@@H](C[C@H](N[*:1])C(=O)[*:2])CC1)c1cnccn1; d(hArg(Et2)) = CCN=C(NCC)NCCCC[C@@H](N)C(=O)O; X1 = O=C([C@@H](Cc1cnc2ccccc2c1)N[*:1])[*:2]; Ala(2-pyrazinyl) = N[C@@H](Cc1cnccn1)C(=O)O; hArg(Et2) = CCN=C(NCC)NCCCC[C@H](N)C(=O)O; dPhe(4-Cl) = N[C@H](Cc1ccc(Cl)cc1)C(=O)O; X3 = O=C([C@@H](Cc1cnccn1)N[*:1])[*:2]; d2Nal = N[C@H](Cc1ccc2ccccc2c1)C(=O)O; Lys(iPr) = CC(C)NCCCC[C@H](N)C(=O)O; d3Pal = N[C@H](Cc1cccnc1)C(=O)O; Cit = NC(=O)NCCC[C@H](N)C(=O)O; Picolinoyl = O=C(c1ccccn1)*; Abu = CC[C@H](N)C(=O)O
Key:
rat mast cells [1] = test: In vitro histamine release in rat mast cells; format: cell-based
Description: (§1) AOA in rats was determined as reported [Humphries et al.]. The wheal area/10 μg of analog was calculated as described [Ljungqvist et al. 1987]. The histamine release was assayed in rat mast cells as reported [Hook et al., Karten et al. 1987]. […] The biological data are in Table III.
(§2) The AOA was determined in rats as reported [Humphries et al.]. […] The data from the determinations of AOA and ED50 are in Table IV.
(§3) The AOA was determined in rats, as reported (13).

[2] = Wheal area per 10 μg of analog; format: in vivo
Description: as §1

rat mast cells [3] = settings: cited from earlier work; for Histamine release ED50: Table V
rats [4] = test: Antiovulatory activity (AOA) in rats; format: in vivo, rat; settings: Table IV / Example 2
Description: as §1, §2, §3
The very large number of bioassays which are required for a very large number of samples necessitate a minimal number of animals for the initial bioassays. In these initial bioassays, relatively small differences in potencies, expressed as percent AOA, may be "semi-quantitative," but even such small initial differences may reveal valid trends of potency for structural interpretation and new designs.
Bioassays are repeated as many times as required for quantitative data. […] The initial bioassay of Antide showing 63% at 0.125 μg and 89% at 0.25 μg was on the first sample of […]. The following three bioassays were on a resynthesized sample. However, both samples fulfilled all criteria for purity.

rats [5] = settings: cited from earlier work; for AOA %/μg 0.25: 0.25 μg; for dose giving AOA of 100% (AOA100): background, literature antagonists
testosterone secretion = settings: male monkeys; single dose; cited from earlier work
[6] = Table III parent analogs from literature; cited from earlier work
gonadotropin secretion = settings: overectomized monkeys; single or multiple doses; cited from earlier work

ED50 for hist. release (rat mast cells [1]): 18 µg/mL
Compound: CC(=O)N[C@H](Cc1ccc2ccccc2c1)C(=O)N[C@H](Cc1ccc(Cl)cc1)C(=O)N[C@H](Cc1cccnc1)C(=O)N[C@@H](CO)C(=O)N[C@@H](CCCCNC(=O)c1ccccn1)C(=O)N[C@H](CCCCNC(=O)[C@H](N)CO)C(=O)N[C@@H](CC(C)C)C(=O)N[C@@H](CCCCNC(C)C)C(=O)N1CCC[C@H]1C(=O)N[C@H](C)C(N)=O (Ac-[d2Nal][dPhe(4-Cl)][d3Pal]SK(Picolinoyl)[dK](dS)L[Lys(iPr)]P[dA]-NH2)

ED50 for hist. release (rat mast cells [1]): 88 ± 6.4 µg/mL
Compound: CC(=O)N[C@H](Cc1ccc2ccccc2c1)C(=O)N[C@H](Cc1ccc(Cl)cc1)C(=O)N[C@H](Cc1cccnc1)C(=O)N[C@@H](CO)C(=O)N[C@@H](C[C@H]1CC[C@@H](NC(=O)c2cnccn2)CC1)C(=O)N[C@H](Cc1cnccn1)C(=O)N[C@@H](CC(C)C)C(=O)N[C@@H](CCCCNC(C)C)C(=O)N1CCC[C@H]1C(=O)N[C@H](C)C(N)=O (Ac-[d2Nal][dPhe(4-Cl)][d3Pal]S[X2][X3]L[Lys(iPr)]P[dA]-NH2)

ED50 histamine release (rat mast cells [1]): 94 µg/mL (≈ 62.6 µM)
Compound: CC(=O)N[C@H](Cc1cnc2ccccc2c1)C(=O)N[C@H](Cc1ccc(Cl)cc1)C(=O)N[C@H](Cc1cccnc1)C(=O)N[C@@H](CO)C(=O)N[C@@H](CCCNC(N)=O)C(=O)N[C@H](CCCCNC(=O)c1ccccn1)C(=O)N[C@@H](CC(C)C)C(=O)N[C@@H](CCCNC(=N)N)C(=O)N1CCC[C@H]1C(=O)N[C@H](C)C(N)=O [Analog 6 (Table VI), [Cit^5]-Argtide] (Ac-[X1][dPhe(4-Cl)][d3Pal]S[Cit][dK](Picolinoyl)LRP[dA]-NH2)

Compound: CC(=O)N[C@H](Cc1ccc2ccccc2c1)C(=O)N[C@H](Cc1ccc(Cl)cc1)C(=O)N[C@H](Cc1cccnc1)C(=O)N[C@@H](CO)C(=O)N[C@@H](CCCCNC(=O)c1ccccn1)C(=O)N[C@H](CCCCNC(=O)[C@H](N)CO)C(=O)N[C@@H](CC(C)C)C(=O)N[C@@H](CCCCNC(C)C)C(=O)N1CCC[C@H]1C(=O)N[C@H](C)C(N)=O [Analog 7 (Table III), [N-Ac-D-Nal^1,D-pClPhe^2,D-3-Pal^3,PicLys^5,D-(DSer)Lys.sup .6,ILys^8,D-Ala^10]-LHRH] (Ac-[d2Nal][dPhe(4-Cl)][d3Pal]SK(Picolinoyl)[dK](dS)L[Lys(iPr)]P[dA]-NH2)
Wheal area ([2]; Table III / Example 1, listed as 7): 103.9 ± 5.2 mm^2 /10 μg and 103.9 mm^2 /10 μg

ED50 for hist. release (rat mast cells [1]): 171 ± 17 µg/mL
Compound: CC(=O)N[C@H](Cc1cnc2ccccc2c1)C(=O)N[C@H](Cc1ccc(Cl)cc1)C(=O)N[C@H](Cc1cccnc1)C(=O)N[C@@H](CO)C(=O)N[C@@H](C[C@H]1CC[C@@H](NC(=O)c2cnccn2)CC1)C(=O)N[C@H](CCCCNC(=O)c1ccccn1)C(=O)N[C@@H](CC(C)C)C(=O)N[C@@H](CCCCNC(C)C)C(=O)N1CCC[C@H]1C(=O)N[C@H](C)C(N)=O [Analog 11 (Table III), [N-Ac-D-3-Qal^1, D-pClPhe^2, D-3-Pal^3, c-PzACAla^5, D-PicLys^6, ILys^8, D-Ala^10] LHRH] (Ac-[X1][dPhe(4-Cl)][d3Pal]S[X2][dK](Picolinoyl)L[Lys(iPr)]P[dA]-NH2)

Compound: CCN=C(NCC)NCCCC[C@H](NC(=O)[C@H](CC(C)C)NC(=O)[C@@H](CCCCNC(=NCC)NCC)NC(=O)[C@H](Cc1ccc(O)cc1)NC(=O)[C@H](CO)NC(=O)[C@@H](Cc1cccnc1)NC(=O)[C@@H](Cc1ccc(Cl)cc1)NC(=O)[C@@H](Cc1ccc2ccccc2c1)NC(C)=O)C(=O)N1CCC[C@H]1C(=O)N[C@H](C)C(N)=O [RS-26306, [N-Ac-D-2-Nal^1, D-pClPhe^2, D-3-Pal^3, D-hArg(Et2)^6, hArg(Et)2^8, D-Ala^10] LHRH] (Ac-[d2Nal][dPhe(4-Cl)][d3Pal]SY[d(hArg(Et2))]L[hArg(Et2)]P[dA]-NH2)
Histamine release ED50 (rat mast cells [3]): 13 µg/mL

ED50 for hist. release (rat mast cells [1]; concentration releasing 50% of total releasable histamine, Table III / Example 1): 28 ± 4.7 µg/mL
Wheal area ([2]; Table III / Example 1): 101.6 ± 2.2 mm^2 /10 μg
Compound: CC(=O)N[C@H](Cc1ccc2ccccc2c1)C(=O)N[C@H](Cc1ccc(Cl)cc1)C(=O)N[C@H](Cc1cccnc1)C(=O)N[C@@H](CO)C(=O)N[C@@H](Cc1cnccn1)C(=O)N[C@H](C[C@H]1CC[C@@H](NC(=O)c2cnccn2)CC1)C(=O)N[C@@H](CC(C)C)C(=O)N[C@@H](CCCCNC(C)C)C(=O)N1CCC[C@H]1C(=O)N[C@H](C)C(N)=O [compound 18] (Ac-[d2Nal][dPhe(4-Cl)][d3Pal]S[Ala(2-pyrazinyl)][dAla(cis-4-NHCOPyz-cHex)]L[Lys(iPr)]P[dA]-NH2)

Wheal area ([2]; Table III / Example 1): 103.9 ± 3.7 mm^2 /10 μg
Compound: CC[C@H](NC(=O)[C@@H](CCCCNC(=O)c1ccccn1)NC(=O)[C@H](CCCCNC(=O)c1ccccn1)NC(=O)[C@H](CO)NC(=O)[C@@H](Cc1cccnc1)NC(=O)[C@@H](Cc1ccc(Cl)cc1)NC(=O)[C@@H](Cc1cnc2ccccc2c1)NC(C)=O)C(=O)N[C@@H](CCCCNC(C)C)C(=O)N1CCC[C@H]1C(=O)N[C@H](C)C(N)=O [compound 20] (Ac-[X1][dPhe(4-Cl)][d3Pal]SK(Picolinoyl)[dK](Picolinoyl)[Abu][Lys(iPr)]P[dA]-NH2)

Wheal area ([2]; Table III / Example 1): 99.5 ± 4.5 mm^2 /10 μg
Compound: CC(=O)N[C@H](Cc1ccc2ccccc2c1)C(=O)N[C@H](Cc1ccc(Cl)cc1)C(=O)N[C@H](Cc1cccnc1)C(=O)N[C@@H](CO)C(=O)N[C@@H](CCCCNC(=O)c1ccccn1)C(=O)NC1CCN(C(CC(C)C)C(=O)N[C@@H](CCCCNC(C)C)C(=O)N2CCC[C@H]2C(=O)N[C@H](C)C(N)=O)C1=O (stereo partly shown) [compound 21]

Wheal area ([2]; Table III / Example 1): 89.5 ± 5.5 mm^2 /10 μg
Compound: CC(=O)N[C@H](Cc1cnc2ccccc2c1)C(=O)N[C@H](Cc1ccc(Cl)cc1)C(=O)N[C@H](Cc1cccnc1)C(=O)N[C@@H](CO)C(=O)N[C@@H](CCCCNC(=O)c1ccccn1)C(=O)NC1CCN(C(CC(C)C)C(=O)N[C@@H](CCCCNC(C)C)C(=O)N2CCC[C@H]2C(=O)N[C@H](C)C(N)=O)C1=O (stereo partly shown) [compound 22]

ED50 histamine release (rat mast cells [1]): 30.8 ± 0.59 µg/mL
Compound: N-Ac-D-3-Qal, D-pClPhe, D-3-Pal, Ser, c-PzACAla, D-PicLys, Leu, Arg, Pro, D-AlaNH2 [Argtide]
Histamine release ED50 (rat mast cells [3]): 31 µg/mL
ED50 histamine release (rat mast cells [3]; Table VI / Example 3 text, from Janecka et al.): 31 µg/mL
% AOA/μg dosage 0.125 (rats [4]; 0.125 μg): 63%
% AOA/μg dosage 0.25 (rats [4]; 0.25 μg): 89%
column 0.125 (AOA, head not given) (rats [5]; Table V comparison of leading antagonists, column 0.125): 63
AOA %/μg 0.25 (rats [5]; rats, Table VI / Example 3 text, from Janecka et al.): 88%

Compound: [D-Phe^2, Pro^3, DTrp^6 ] LHRH
dose giving AOA of 100% (AOA100) (rats [5]): 750 μg/rat

Compound: [N-Ac-D-2-Nal^1 ; D-pClPhe^2, D-Trp^3, D-Arg^6, D-Ala^10 ] LHRH
dose giving AOA of 100% (AOA100) (rats [5]): ca. 0.5 μg/rat

Compound: [N-Ac-D-2-Nal^1, D-pClPhe^2, D-3-Pal^3, Arg^5, D-Glu(AA)^6, D-Ala^10 ] LHRH [Nal-Glu]
column 1.5 (AOA, head not given) (rats [5]; Table V, column 1.5): 100

Compound: [N-Ac-D-2-Nal^1, D-pClPhe^2, D-3-Pal^3, D-Arg^6, Trp^7, D-Ala^10 ] LHRH
dose giving AOA of 100% (AOA100) (rats [5]): ca. 0.5 μg/rat

Compound: [N-Ac-D-2-Nal^1, D-pClPhe^2, D-3-Pal^3, NicLys^5, D-NicLys^6, Ilys^8, D-Ala^10 ] LHRH [Antide]
ED50 for hist. release (rat mast cells [3]; Table III parent analogs from literature): 300 µg/mL
Histamine release ED50 (rat mast cells [3]): > 300 µg/mL
ED50 for histamine release (rat mast cells [3]; background): 300 µg/mL
histamine release (in words) (rat mast cells [3]; background): negligible
column 1.0 (AOA, head not given) (rats [5]; Table V, column 1.0): 100
dose giving AOA of 100% (AOA100) (rats [5]): 1 μg/rat
AOA %/μg 0.25 (rats [5]; rats, Table III parent analogs from literature): inactive
AOA %/μg 0.5 (rats [5]; rats, 0.5 μg, Table III parent analogs from literature): 36%
suppression of testosterone secretion (testosterone secretion): long-term suppression
Wheal area [6]: 132.7 mm^2 /10 μg
inhibition of gonadotropin secretion (gonadotropin secretion): Prolonged duration of inhibition

Compound: [N-Ac-D-2-Nal^1, DpClPhe^2, D-Trp^3, D-Cit^6, D-Ala^10 ] LHRH
dose giving AOA of 100% (AOA100) (rats [5]): 3 μg/rat
